Earlier results, collected in US20240374497A1, “COMPOSITIONS COMPRISING OR2AT4 AGONISTS” (Coty Inc., priority 2021, published 2024).

What was measured:
[1] = tested on: human epidermal keratinocyte; conditions: in vitro; selective activation of OR2AT4
human epidermis = conditions: ex vivo; selective activation of OR2AT4
[2] = molecular target: T1, olfactory receptor OR2AT4 (Homo sapiens, UniProt A6NND4); conditions: receptor expressed in the epithelium of human hair follicles
T1 sequence (A6NND4 1-320): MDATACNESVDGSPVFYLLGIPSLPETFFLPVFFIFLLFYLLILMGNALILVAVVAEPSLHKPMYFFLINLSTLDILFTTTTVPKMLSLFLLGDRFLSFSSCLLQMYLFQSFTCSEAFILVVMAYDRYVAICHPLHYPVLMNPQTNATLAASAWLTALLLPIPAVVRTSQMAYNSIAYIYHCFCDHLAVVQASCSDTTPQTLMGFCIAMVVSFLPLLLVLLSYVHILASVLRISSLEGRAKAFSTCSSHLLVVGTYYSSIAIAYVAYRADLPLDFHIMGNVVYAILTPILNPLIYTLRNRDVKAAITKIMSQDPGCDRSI

SMILES | human epidermal keratinocyte migration and proliferation [1] | wound re-epithelialization (human epidermis) | hair growth ex vivo (human hair follicles) | apoptosis (human hair follicles; ex vivo) | production of growth factor IGF-1 (human hair follicles; ex vivo) | effect on the olfactory receptor OR2AT4 [2]
CC1=CCC(CCC(C)C(C)O)C1(C)C (stereo not drawn) [Sandalore®] | promotes human epidermal keratinocyte migration and proliferation | promotes |  |  |  | 
CC1=CCC(CCC(C)C(C)O)C1(C)C (stereo not drawn) [sandal pentanol, 3-methyl-5-(2,2,3-trimethylcyclopent-3-en-1-yl)pentan-2-ol] |  |  | prolongs hair growth | decreasing apoptosis | increasing the production of growth factor IGF-1 | stimulatory effect
